From paper PMC12138827, “Molecular Modeling and In Vitro Evaluation of Thioureas and Arylthioureas as Urease Inhibitors” (ACS Omega, 2025)
Several values for one entry are separate records, joined by “and”; a condition that tells them apart may be missing. Equal entries are not always repeated. Entries after “also recorded” stand apart in the source; their conditions may differ. Where two headings read alike, the source gives them in different places. Marks after values point to notes of the source that are not given here.

Experiments:
[1] = target: T1, C. ensiformis urease (CEU) (Canavalia ensiformis, UniProt P07374); experiment: Enzyme kinetics on C. ensiformis urease (Michaelis–Menten, Lineweaver–Burk plots); type: biochemical; settings: for Ki: Lineweaver–Burk, compound 0.50 and 0.25 mM; for Vmax: CEU kinetic parameter with the compound; for Alfa (α): mixed inhibitors; for Inhibition type (mechanism of action): Lineweaver–Burk plots
T1 construct: purchased Merck (Sigma-Aldrich) Jack bean type III (CAS 9002-13-5)
Procedure: Enzyme kinetics were studied following previous work by our research group. , The same reaction mixture was applied to determine inhibitory activity, and the IC50 was adopted to study enzyme kinetics in C. ensiformis urease. However, only two concentrations of the test substance were used (0.50 and 0.25 mM), along with five different concentrations of urea substrate (0.66, 1.00, 1.50, 2.00, and 2.50 mM) for each sample. The absorbance of the reaction mixture was recorded at 630 nm using a Loccus model LMR-96i UV–visible microplate reader. Michaelis–Menten (nonlinear regression) and Lineweaver–Burk (linear regression) plots, as well as the determination of inhibition constants (K i ), K m, α, and V max, were made using GraphPad Prism software (version 8.0.2). Enzymatic activity was calculated using an ammonium chloride calibration curve. One unit of enzymatic activity (U) is the amount of enzyme capable of releasing 1 μmol of ammonia per minute of reaction (U = 1 μmol NH4 ^+ min^–1 μmol enzyme^–1). The assays were performed in triplicate.

[2] = Solubility under the urease assay conditions; type: physicochemical; settings: urease assay medium
Procedure: (§1) The assays were performed in triplicate on a 96-well plate, as described by our research group. , The procedure involved adding 100 μL of urea (10 mM), 55.0 μL of sodium phosphate buffer solution (100 mM, pH 7.4) supplemented with EDTA (1 mM), and 10 μL of the test substance at 2.00 mM for inhibition percentage assays, previously dissolved in methanol. Subsequently, 25.0 μL of urease enzyme solution (0.0035 mM) was added, and the reaction mixture was incubated at 45–50 °C for 30 min. After incubation, 40.0 μL of phenol reagent (1% phenol and 0.05% sodium nitroprusside) and 40.0 μL of alkaline reagent (1.0% NaOH and […]) were added. The reaction rested for 15 min, and the absorbance was read at 630 nm using a Loccus model LMR-96i UV–visible microplate reader.

[3] = target: T1, C. ensiformis urease (CEU); experiment: biochemical; settings: triplicate; for IC50: 0.2-2.0 mM; for inhibition at 2000 µM: read-out: %I ± SD (inhibitory percentage against CEU), test substance at 2.00 mM; for %I ± SD (inhibitory percentage against CEU): test substance at 2.00 mM
Procedure: The in vitro inhibitory activity of C. ensiformis urease was conducted using the indophenol reaction, also known as the Berthlot Reaction. Commercially purchased urease from Merck (Sigma-Aldrich), Jack bean type III (CAS 9002–13–5), was utilized, and the methodology was adapted from Khan et al. (2017).
as §1
Thiourea (2.00 mM) served as the standard inhibitor.
To determine half of the maximum inhibitory concentration (IC50), substances LaSMMed 42, LaSMMed 122–126, and the thiourea control were tested at different concentrations (0.2, 0.4, 0.8, 1.0, 1.4, and 2.0 mM). The IC50 values were calculated using GraphPad Prism 8.0.2, employing a dose–response curve.

T1 sequence (P07374 whole entry, looked up): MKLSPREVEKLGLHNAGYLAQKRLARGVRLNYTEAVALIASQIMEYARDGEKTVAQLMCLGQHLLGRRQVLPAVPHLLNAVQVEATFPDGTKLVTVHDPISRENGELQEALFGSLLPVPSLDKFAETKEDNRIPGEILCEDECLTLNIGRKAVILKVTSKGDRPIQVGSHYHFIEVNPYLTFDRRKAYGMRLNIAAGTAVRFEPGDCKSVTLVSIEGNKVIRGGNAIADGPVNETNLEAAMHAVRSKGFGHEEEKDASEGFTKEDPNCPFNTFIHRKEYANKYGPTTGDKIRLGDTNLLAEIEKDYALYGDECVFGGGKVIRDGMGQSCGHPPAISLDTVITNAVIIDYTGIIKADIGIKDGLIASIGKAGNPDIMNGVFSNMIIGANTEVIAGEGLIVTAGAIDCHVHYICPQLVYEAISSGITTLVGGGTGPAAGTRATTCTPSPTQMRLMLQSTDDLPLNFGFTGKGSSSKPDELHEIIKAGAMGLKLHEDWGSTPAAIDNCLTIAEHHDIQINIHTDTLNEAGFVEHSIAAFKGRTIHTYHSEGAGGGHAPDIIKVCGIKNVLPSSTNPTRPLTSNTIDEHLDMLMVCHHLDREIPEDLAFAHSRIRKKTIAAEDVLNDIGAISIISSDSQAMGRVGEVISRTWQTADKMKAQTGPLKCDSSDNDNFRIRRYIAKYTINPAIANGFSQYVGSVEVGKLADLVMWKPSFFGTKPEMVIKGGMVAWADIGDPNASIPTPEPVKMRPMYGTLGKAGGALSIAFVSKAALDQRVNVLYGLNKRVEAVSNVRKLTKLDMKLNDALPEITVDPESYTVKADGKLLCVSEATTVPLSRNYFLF

Row | SMILES | Ki [1] | IC50 ([3]; IC50 ± SD) | inhibition at 2000 µM [3] [%] | Vmax [1] [µmol/min] | %I ± SD (inhibitory percentage against CEU) [3] | further results
1 | NC(=S)Nc1ccc([N+](=O)[O-])cc1 [compound 124] | ~100 µM |  |  |  |  | 
2 | COc1ccc(NC(=S)NC(=O)/C=C/c2ccccc2)cc1 [LaSMMed 44] |  |  |  |  |  | Solubility under the tested conditions [2]: insoluble
3 | NC(=S)Nc1ccc(Br)cc1 [LaSMMed 123] | 110 µM | 493 ± 7 µM | 86.18 ± 0.75 | 741.30 |  | Alfa (α) [1]: 9.75
4 | NC(N)=S [Thiourea] |  |  |  |  | 84.12 ± 0.84^d % | IC50 ([3]; read-out: IC50 ± SD): 504 ± 25 µM; %I ± SD (inhibitory percentage against CEU) ([3]; listed as thiourea): 84%
5 | NC(=S)Nc1ccc(Cl)cc1 [LaSMMed 122] | 90 µM and 89 µM | ~575 µM and 575 µM | 87.6 ± 1.72 | 735.50 |  | Alfa (α) [1]: 6.00
6 | COc1ccc(NC(N)=S)cc1 [LaSMMed 125] | 80 µM | 510 ± 19 µM | 84 | 737.50 | 84.56 ± 1.23^b % | Inhibition type (mechanism of action) [1]: competitive inhibition; also recorded: competitive inhibitor
7 | CNC(=S)NC(=O)/C=C/c1ccccc1 [LaSMMed 37] |  |  | 30 to 40 |  | 33.53 ± 1.06^c % | 
8 | CCCCCCNC(=S)NC(=O)/C=C/c1ccccc1 [LaSMMed 40] |  |  |  |  | 39.34 ± 1.72^c % | 
9 | Cc1ccc(NC(N)=S)cc1 [compound 126] | ~100 µM | ~575 µM |  |  |  | 
10 | Cc1ccc(NC(=S)NC(=O)/C=C/c2ccccc2)cc1 [compound 46] |  |  | 13 |  |  | 
11 | NC(=S)NC(=O)/C=C/c1ccccc1 [LaSMMed 42] |  |  | 82 |  | 82.37 ± 0.34^d % | 
12 | Cc1ccc(NC(=S)NC(=O)/C=C/c2ccccc2)cc1 [LaSMMed 46] |  |  |  |  | 13.04 ± 2.46^f % | 
13 | O=C(/C=C/c1ccccc1)NC(=S)Nc1ccc(F)cc1 [LaSMMed 45] |  |  | 24 |  | 23.98 ± 1.44^e % | 
14 | CCCCCCNC(=S)NC(=O)/C=C/c1ccccc1 [compound 40] |  |  | 30 to 40 |  |  | 
15 | NC(=S)Nc1ccc([N+](=O)[O-])cc1 [LaSMMed 124] | 130 µM | 464 ± 3 µM | 88.3 ± 0.26 | 733.50 |  | Alfa (α) [1]: 6.13
16 | Cc1ccc(NC(N)=S)cc1 [LaSMMed 126] | 100 µM | 568 ± 22 µM | 87.86 ± 0.48 | 732.30 |  | Inhibition type (mechanism of action) [1]: mixed-type inhibition; Alfa (α) [1]: 4.88
